Assay results from patent publication US12479791B2, “Cationic lipid” (Takeda Pharmaceutical Company Limited, priority 2018, dated 2025).

Columns and labels:
[1] = tested on: human colorectal cancer-derived cell line HCT116; test: Transfection of cultured cell with mRNA (luciferase luminescence); format: cell-based; conditions: 10 ng luciferase mRNA, 24 hours
Protocol: A human colorectal cancer-derived cell line HCT116 was cultured at a cell density of 6000 cells/well in a 96-well plate. 24 hours later, 10 μl of the lipid particle containing 10 ng of luciferase mRNA was added to the medium. 24 hours after the addition of mRNA, a reagent of Picagene LT2.0 kit (Toyobo Co., Ltd.) was added to the culture plate of HCT116. The luminescence (count per sec (cps)) of luciferase was measured using a luminescence plate reader EnVision (PerkinElmer, Inc.).

[2] = Analysis of luciferase mRNA-encapsulated lipid nanoparticle (Production Example 2); format: physicochemical; conditions: for Rate of encapsulation / Average particle size: luciferase mRNA lipid nanoparticle; for mRNA concentration: luciferase mRNA lipid nanoparticle dispersion after dialysis and filtration; for Average particle size: cationic lipid:DPPC:cholesterol:GS-020=60:10.6:28:1.4
From the text: (§1) The particle size of the lipid particle (in the composition) can be measured by a known approach. For example, the particle size can be calculated as a Z-average particle size by the cumulant analysis of an autocorrelation function using a particle size measurement apparatus Zetasizer Nano ZS (Malvern Instruments) based on a dynamic light scattering measurement technique. The particle size (average particle size) of the lipid particle (in the composition) is, for example, 10 to 200 nm, preferably 60 to 170 nm.
(§2) The concentration and rate of encapsulation of the nucleic acid (e.g., siRNA or mRNA) in the composition of the present invention can be measured by a known approach. For example, the nucleic acid is fluorescently labeled using Quant-iT™ RiboGreen® (Invitrogen Corp.), and the fluorescence intensity can be measured to determine the concentration and the rate of encapsulation. The concentration of the nucleic acid in the composition can be calculated using a calibration curve prepared from aqueous nucleic acid solutions having known concentrations. The rate of encapsulation can be calculated on the basis of the difference in fluorescence intensity between the presence and absence of addition of Triton-X 100 (surfactant for disrupting the lipid particle). The concentration of the nucleic acid in the composition refers to the total concentration of a nucleic acid encapsulated in the lipid particle and an unencapsulated nucleic acid. The rate of encapsulation refers to the ratio of the nucleic acid encapsulated in the lipid particle to all nucleic acids in the composition.
A lipid mixture (cationic lipid:DPPC:cholesterol:GS-020=60:10.6:28:1.4, molar ratio) was dissolved in 90% of EtOH and 10% of water to obtain an 8.5 mg/ml lipid solution. Luciferase mRNA (TriLink BioTechnologies, Inc.) was dissolved in a 10 mM 2-morpholinoethanesulfonic acid (MES) buffer solution (pH 4.0) to obtain a 0.22 mg/ml nucleic acid solution. The obtained lipid solution and nucleic acid solution were mixed at a flow rate ratio of 3 ml/min:6 ml/min at room temperature using NanoAssemblr apparatus (Precision NanoSystems Inc.) to obtain a dispersion containing a composition. The obtained dispersion was dialyzed against water at room temperature for 1 hour and against PBS at 4° C. for 48 hours using Slyde-A-Lyzer (molecular weight cutoff: 20 K, Thermo Fischer Scientific Inc.). Subsequently, the dialysate was filtered through a 0.2 μm syringe filter (Iwaki) and preserved at 4° C.

Col1a1 gene = test: Hepatic collagen 1a1 gene knockdown in CCl4 hepatic fibrosis mouse model; format: in vivo; conditions: male Balb/c mouse, Col1a1 siRNA + FVII siRNA 0.1 + 0.1 mg/kg intravenous, liver 4 days after administration, qPCR normalized with GAPDH, vs siRNA non-administration group
Protocol: (§3) The Col1a1 siRNA-encapsulated lipid nanoparticle was administered at 0.1 mg/kg into the orbital plexus of the vein of each 8-week-old male Balb/c mouse. 3 hours later, CCl4 mixed with corn oil was orally administered at a dose of 0.1 mL/kg (10 mL/kg) by forced single-dose administration (n=6 in each group). 4 days after the administration of the siRNA-encapsulated lipid nanoparticle, the liver was collected from the mouse euthanized under anesthesia, followed by gene expression analysis by quantitative PCR. The Col1a1 gene expression level and the FVII gene expression level were normalized with the expression level of GAPDH. The amount of decrease in Col1a1 gene expression as compared with a siRNA non-administration group was regarded as the rate of knockdown. In mice intravenously given the siRNA-encapsulated lipid nanoparticle formed using the compound of the present invention, the knockdown of the activated stellate cell marker gene Col1a1 gene was strongly observed, as compared with the rate of knockdown of the hepatic parenchymal cell marker gene FVII.

FVII gene = test: Hepatic FVII gene knockdown in CCl4 hepatic fibrosis mouse model; format: in vivo; conditions: male Balb/c mouse, Col1a1 siRNA + FVII siRNA 0.1 + 0.1 mg/kg intravenous, liver 4 days after administration, qPCR normalized with GAPDH
Protocol: as §3

[3] = Analysis of Col1a1 siRNA + FVII siRNA-encapsulated lipid nanoparticle (Production Example 3); format: physicochemical; conditions: for Rate of encapsulation / Particle size: Col1a1 siRNA + FVII siRNA lipid nanoparticle; for Particle size: cationic lipid:DPPC:cholesterol:GS-020=60:10.6:28:1.4; for Col1a1 siRNA + FVII siRNA concentration: lipid nanoparticle dispersion after dialysis and filtration
From the text: as §1, §2
A lipid mixture (cationic lipid:DPPC:cholesterol:GS-020=60:10.6:28:1.4, molar ratio) was dissolved in 90% of EtOH and 10% of a 25 mM acetate buffer solution (pH 4.0) to obtain a 7.4 mg/ml lipid solution. siRNA against collagen 1a1 (Col1a1) and siRNA against factor VII (FVII) were dissolved in equal weights in a 25 mM acetate buffer solution (pH 4.0) to obtain a 0.15 mg/ml nucleic acid solution. The sequences of Col1a1 siRNA and FVII siRNA were quoted from Hepatology, […], No. 4, 2015, and Silence, Vol. 1, No. 16, 2010, respectively. The obtained lipid solution and nucleic acid solution were mixed at a flow rate ratio of 1 ml/min:5 ml/min using a microfluidic mixing apparatus NanoAssemblr (Precision NanoSystems Inc.) to obtain a dispersion containing a composition. The obtained dispersion was dialyzed against water at room temperature for 1 hour and against PBS at room temperature for 18 hours using Slyde-A-Lyzer (molecular weight cutoff: 20 K, Thermo Fischer Scientific Inc.). Subsequently, the dialysate was filtered through a 0.2 μm syringe filter (Iwaki) and preserved at 4° C. The siRNA-encapsulated lipid nanoparticle was very favorably formed using the compound of the present invention.

Compound	Average luminescence (cps) of 3 wells ([1]; Table 10 (PBS control 293)) [cps]	Rate of encapsulation [2] [%]	mRNA concentration [2] [µg/mL]	Average particle size [2] [nm]	Rate of Col1a1 knockdown (Col1a1 gene) [%]	Rate of FVII knockdown (FVII gene) [%]	Rate of encapsulation [3] [%]	Particle size [3] [nm]	Col1a1 siRNA + FVII siRNA concentration [3] [µg/mL]	Average luminescence (cps) of 3 wells ([1]; Table 8 (PBS control 1293)) [cps]	Average luminescence (cps) of 3 wells ([1]; Table 9 (PBS control 80)) [cps]	Average luminescence (cps) of 3 wells ([1]; Table 7 (PBS control 413)) [cps]	Average luminescence (cps) of 3 wells ([1]; Table 6 (PBS control 1040)) [cps]
CCCCCC(=O)OCC(COC(=O)CCCCC)(COC(=O)CCCCN(C)C)COC(=O)CCC(CCCC)C(CCCC)CCCC (stereo not shown) [Example 15, 3-((5-(Dimethylamino)pentanoyl)oxy)-2,2-bis((hexanoyloxy)methyl)propyl 4,5-dibutylnonanoate]	3293	99	127	164	–	–	–	–	–	–	–	–	–
CCCCCCCC(=O)OCC(COC(=O)CCCCCCC)(COC(=O)CCCN(C)C)COC(=O)CCC(CCCC)C(CCCC)CCCC (stereo not shown) [Example 19, 3-((4-(Dimethylamino)butanoyl)oxy)-2,2-bis((octanoyloxy)methyl)propyl 4,5-dibutylnonanoate]	–	–	–	–	71	31	96	89	112	–	–	–	–
CCCCCCCC(=O)OCC(COC(=O)CCCCCCC)(COC(=O)CCCCN(C)C)COC(=O)CCC(CCCCCCC)CCCCCCC [Example 1, 3-((5-(Dimethylamino)pentanoyl)oxy)-2,2-bis((octanoyloxy)methyl)propyl 4-heptylundecanoate]	110733	96	145	112	86	0	98	111	128	–	–	–	–
CCCCCCCCCC(=O)OCC(COC(=O)CCCCCCCCC)(COC(=O)CCCCN(C)C)COC(=O)CCC(CCC)C(CCC)CCC (stereo not shown) [Example 16, 2-(((5-(Dimethylamino)pentanoyl)oxy)methyl)-2-(((4,5-dipropyloctanoyl)oxy)methyl)propane-1,3-diyl didecanoate]	141560	94	134	109	74	15	96	103	124	–	–	–	–
CCCCCCCC(=O)OCC(COC(=O)CCCCCCC)(COC(=O)CCCCN(C)C)COC(=O)CCC(CCCC)C(CCCC)CCCC (stereo not shown) [Example 10, 3-((5-(Dimethylamino)pentanoyl)oxy)-2,2-bis((octanoyloxy)methyl)propyl 4,5-dibutylnonanoate]	112893	96	83	123	77	0	97	101	137	500747	176813	–	–
CCCCCCCC(=O)OCC(COC(=O)CCCCCCC)(COC(=O)CCCCN(C)C)COC(=O)CCC(CCC)C(CCC)CCC (stereo not shown) [Example 17, 3-((5-(Dimethylamino)pentanoyl)oxy)-2,2-bis((octanoyloxy)methyl)propyl 4,5-dipropyloctanoate]	7987	87	116	152	–	–	–	–	–	–	–	–	–
CCCCCCCC(=O)OCC(COC(=O)CCCCN(C)C)(COC(=O)CC(CCCCC)CCCCC)COC(=O)CC(CCCCC)CCCCC [Example 9]	–	94	77	96	–	–	–	–	–	–	–	63493	–
CCCCCCCC(=O)OCC(COC(=O)CCCCCCC)(COC(=O)CCC(CCCC)C(CCCC)CCCC)COC(=O)NCCCCN(C)C (stereo not shown) [Example 18, 3-(((4-(Dimethylamino)butyl)carbamoyl)oxy)-2,2-bis((octanoyloxy)methyl)propyl 4,5-dibutylnonanoate]	12813	99	103	77	–	–	–	–	–	–	–	–	–
CCCCCCCCCC(=O)OCC(COC(=O)CCCCCCCCC)(COC(=O)CCCCN(C)C)COC(=O)CCC(CCCC)C(CCCC)CCCC (stereo not shown) [Example 14, 2-(((4,5-Dibutylnonanoyl)oxy)methyl)-2-(((5-(dimethylamino)pentanoyl)oxy)methyl)propane-1,3-diyl didecanoate]	178133	94	134	88	76	16	96	97	126	–	–	–	–
CCCCCC(=O)OCC(COC(=O)CCCCC)(COC(=O)CCCCN(C)C)COC(=O)CCC(CCCCC)C(CCCCC)CCCCC (stereo not shown) [Example 12, 3-((5-(Dimethylamino)pentanoyl)oxy)-2,2-bis((hexanoyloxy)methyl)propyl 4,5-dipentyldecanoate]	–	93	160	134	–	–	–	–	–	–	62587	–	–
CCCCCCCC(=O)OCC(COC(=O)CCCCCN(C)C)(COC(=O)C(CCCCCC)CCCCCC)COC(=O)C(CCCCCC)CCCCCC [Example 8]	–	91	97	103	–	–	–	–	–	–	–	–	381693
